pIC50: −log10 of the molar value.
Experiments:
[1] = test system: Human adenocarcinoma cell line LoVo; experiment: Cell based screen for inhibitors of Raf kinase, quantitative assay; settings: 96 h, four days incubation
Description: (§1) • Cell Lines: Human adenocarcinoma cell line LoVo which is known to be growth inhibited by low nM concentrations of a reference standard inhibitor of Ras and human adenocarcinoma cell line CaCo-2, which is known to be growth resistant to the same reference compound. • Cell Media : RPMI 1640 with 10% Fetal Bovine Serum supplemented with L-glutamine and Pennicilin/Streptomycin. • Compounds: Supplied usually as a 10 mM stock in 100% DMSO. • Normal Saline: 150 mM NaCl • Trichloroacetic Acid (TCA): 50% (w/v) in water • Sulforhodamine B (SRB): 0.4% (w/v) in 1% Acetic Acid • Tris Base: 10 mM in water
(§2) Cells are plated at 2000 cells per well for cell line LoVo and 1500 cells for cell line CaCo-2 in 96 well plates. Cells are plated in media (200 µl) and allowed to adhere overnight at 37°C. At 24 hours post plating, compounds are added directly at a volume of 0.5 µl. For the qualitative screen (compounds screened at 25 µM) compound is added directly to cells. For the quantitative screen, compound is first diluted in DMSO to generate concentrations of compound or reference standard of: 1, 5, 10 and 25 µM. It is advisable to make the dilutions in an identical 96 well plate so that compounds can be added using a multichannel micropipettor set at 0.5 µl. The cells are then incubated for four days after which the media is removed using a 12 well manifold by first tipping the plate forward at a 45 degree angle and then inserting the manifold in an upright orientation to prevent the tips of the manifold from disturbing cells at the bottom of the plate. 200 µl of normal saline is then added to each well using an 8 well multichannel pipettor, followed by the careful addition of 50 µl of 50% TCA. The plates are then incubated for 2 hours at 4°C, after which the supernatant is removed using the same technique as above and the plated washed twice with 200 µl water. The plates are then air dried and 50 µl of SRB stock solution is carefully added so that the entire bottom of each well is covered. This again can be used using an 8 well multichannel pipettor. The SRB is incubated with fixed cells for 15 minutes at room temperature after which the SRB is removed with the manifold as described above and the plates washed twice with 350 µl of 1% acetic acid per well each time. The plates are then air dried after which the bound SRB is released from protein by the addition of 200 µl of Tris base. Resolubilizing the SRB is aided by placing the plates on a rotator for 15-30 minutes. The absorbance of each well is determined at 550 or 562 nm using a microtiter plate reader.
(§3) Each compound or dilution thereof is performed in triplicate. Outliers are identified by visual inspection of the data. Each plate should have a "0" control (vehicle only).
(§4) Quantitative Assay: A standard curve is constructed by plotting the concentration of compound against the average absorbance calculated at that concentration. […] Multiple entries for a given compound indicate that it is tested multiple times.

[2] = test system: human adenocarcinoma cell line CaCo-2; experiment: as above; settings: Caco-2, 96 h, four days incubation
Description: as §1, §2, §3, §4

Raf-1 (c-Raf) = target: T1, Raf-1 (c-Raf) (Homo sapiens, UniProt P04049); experiment: Raf1 kinase cascade assay procedure; format: biochemical
T1 construct: Sf9 insect cell lysate containing full length 6his-tagged recombinant human c-Raf; host or cells: c-Raf: Sf9 insect cell lysate; MEK1 and MAPK: E. coli
Description: (Specific Activity: ~200U/ml). Human Non-active Mek-1-GST and human GST-MAP kinase (recombinant proteins produced in E. coli).
• 1. Assay Dilution Buffer (ADB): 20mM MOPS, pH 7.2, 25mM β-glycerol phosphate, 5mM EGTA, 1mM sodium orthovanadate, 1mM dithiothreitol. • 2. Magnesium/ATP Cocktail: 500µM cold ATP and 75 mM magnesium chloride in ADB. • 4. Active Kinase: Human Active c-Raf: Use at 0.4U per assay point • 5. Non-active GST-MEK1: Use at 0.1µg per assay point. • 6. Non-active GST-p42 MAP Kinase: Use at 1.0 µg per assay point
• 1. TBST - Tris (50 mM, pH 7.5), NaCl (150 mM), Tween-20 (0.05 %) • 2. Superblock (Pierce) • 3. Anti-GST Ab (Pharmacia) • 4. Anti-Phospho MAPK (Sigma) • 5. Anti-Mouse Ab / Europium conjugate (Wallac)
First Stage: c-Raf Dependent Activation of GST-MEK and GST-MAPK • 1. Add […] of ADB per assay (i.e. per well of a 96 well plate) • 2. Add 10 ml of 0.5 mM cold ATP and 75 mM magnesium chloride in ADB. • 3. Add 2 ml of c-Raf (0.4U/assay), in conjunction with 1.6ml non-active MEK1 ([…]). • 4. Add 4 ml of non-active GST-p42 MAP Kinase (1.0 mg/assay). • 5. Incubate for 60 minutes at 30°C in a shaking incubator. • 6. Transfer this mixture to an anti-GST Ab coated 96 well plate (Nunc Immunosorb plates coated o/n with a-GST, then blocked with Pierce Superblock). • 7. Incubate for 60 minutes at 30°C in a shaking incubator Wash 3X with TBST, add Anti-Phospho MAPK (Sigma) (1:3000) • 6. Incubate for 60 minutes at 30°C in a shaking incubator • 7. Wash 3X with TBST, add Anti-Mouse Ab / Europium conjugate (Wallac) (1:500) • 8. Incubate for 60 minutes at 30°C in a shaking incubator • 9. Wash 3X with TBST, Read plates in Wallac Victor model Plate Reader. • 10. Collect data analyze in Excel for single point and IC50 determinations.
Typically Raf-1 assay is run at compound concentrations from 10 µM to 1 nM in half log dilutions. (% inhibition is determined for each compound concentration).

[3] = target: T2, EGF-R Kinase (recombinant enzyme) (Homo sapiens, UniProt P00533); experiment: Inhibition of Epidermal Growth Factor Receptor Kinase (EGF-R) using recombinant enzyme; format: biochemical; settings: RR-SRC peptide substrate, (a) = average of two tests
T2 construct: EGFR cDNA encoding amino acids 645 - 1186 preceded by Met-Ala-(His)6; made in house; host or cells: Sf9 insect cells, recombinant baculovirus vHcEGFR52
Description: Representative test compounds are evaluated in a standard pharmacological test procedure to measure their ability to inhibit the phosphorylation of the tyrosine residue of a peptide substrate catalyzed by the enzyme epidermal growth factor receptor kinase. […] The enzyme used in this assay is the His-tagged cytoplasmic domain of EGFR. […] Sf9 cells in 100 mm plates are infected at a multiplicity of infection of 10 pfu/cell and cells are harvested 48 h post infection. A cytoplasmic extract is prepared using 1% Triton X-100 and applied to Ni-NTA column. After washing the column with 20 mM imidazole, HcEGFR is eluted with 250 mM imidazole (in 50 mM Na2HPO4, pH 8.0, 300 mM NaCl). Fractions collected are dialyzed against 10 mM HEPES, pH 7.0, 50 mM NaCl, 10% glycerol, 1ug/mL antipain and leupeptin and 0.1 mM Pefabloc SC. The protein is frozen in dry ice/methanol and stored -70°C.
Test compounds are made into 10 mg/mL stock solutions in 100% dimethylsulfoxide (DMSO). Prior to experiment, stock solutions are diluted to 500 uM with 100% DMSO and then serially diluted to the desired concentration with HEPES buffer (30 mM HEPES pH 7.4).
For the enzyme reaction, 10 uL of each inhibitor (at various concentrations) are added to each well of a 96-well plate. To this is added 3 uL of enzyme (1:10 dilution in 10mM HEPES, pH 7.4 for final conc. of 1:120). This is allowed to sit for 10 min on ice and is followed by the addition of 5 ul peptide (80 uM final conc.), 10ul of 4X Buffer containing 50 mM HEPES (pH 7.4), 200 mM Na3VO4, 40mM MnCl2, 80 uM ATP, 0.25 uL ^33P-ATP (>2500 Ci/mmol; Amersham) and 12 uL H2O. The reaction is allowed to run for 90 min at room temperature and is followed by spotting the entire volume onto precut P81 filter papers. The filter discs are washed 2X with 0.5% phosphoric acid and radioactivity is measured using a liquid scintillation counter.
The % inhibition of the test compound is determined for at least three different concentrations and the IC50 value is evaluated from the dose response curve. […] CPM(control) is in units of counts per minute and is a number expressing the amount of radiolabled ATP (γ-^33P) incorporated into the RR-SRC peptide substrate by the enzyme after 90 minutes at room temperature in the absence of test compound as measured by liquid scintillation counting. The CPM values are corrected for the background counts produced by ATP in the absence of the enzymatic reaction.

T1 sequence (P04049 whole entry): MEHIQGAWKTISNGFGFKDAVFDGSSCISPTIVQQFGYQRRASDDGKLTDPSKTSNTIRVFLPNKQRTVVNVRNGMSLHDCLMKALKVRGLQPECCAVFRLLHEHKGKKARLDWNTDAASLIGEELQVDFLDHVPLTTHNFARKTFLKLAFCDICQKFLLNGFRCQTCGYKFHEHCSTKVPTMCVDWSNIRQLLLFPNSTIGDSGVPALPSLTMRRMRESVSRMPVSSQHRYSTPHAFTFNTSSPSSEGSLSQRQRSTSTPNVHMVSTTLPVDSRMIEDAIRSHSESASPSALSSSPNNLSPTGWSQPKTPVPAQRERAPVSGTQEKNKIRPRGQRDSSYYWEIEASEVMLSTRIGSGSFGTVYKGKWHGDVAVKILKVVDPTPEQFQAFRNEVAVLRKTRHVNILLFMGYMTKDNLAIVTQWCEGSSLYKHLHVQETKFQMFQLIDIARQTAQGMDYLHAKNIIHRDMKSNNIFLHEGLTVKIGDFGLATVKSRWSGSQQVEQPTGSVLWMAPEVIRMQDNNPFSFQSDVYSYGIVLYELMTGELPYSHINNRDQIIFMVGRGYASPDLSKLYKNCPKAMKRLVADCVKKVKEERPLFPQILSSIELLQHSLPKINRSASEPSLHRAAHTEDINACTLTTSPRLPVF
T2 sequence (P00533 669-1210): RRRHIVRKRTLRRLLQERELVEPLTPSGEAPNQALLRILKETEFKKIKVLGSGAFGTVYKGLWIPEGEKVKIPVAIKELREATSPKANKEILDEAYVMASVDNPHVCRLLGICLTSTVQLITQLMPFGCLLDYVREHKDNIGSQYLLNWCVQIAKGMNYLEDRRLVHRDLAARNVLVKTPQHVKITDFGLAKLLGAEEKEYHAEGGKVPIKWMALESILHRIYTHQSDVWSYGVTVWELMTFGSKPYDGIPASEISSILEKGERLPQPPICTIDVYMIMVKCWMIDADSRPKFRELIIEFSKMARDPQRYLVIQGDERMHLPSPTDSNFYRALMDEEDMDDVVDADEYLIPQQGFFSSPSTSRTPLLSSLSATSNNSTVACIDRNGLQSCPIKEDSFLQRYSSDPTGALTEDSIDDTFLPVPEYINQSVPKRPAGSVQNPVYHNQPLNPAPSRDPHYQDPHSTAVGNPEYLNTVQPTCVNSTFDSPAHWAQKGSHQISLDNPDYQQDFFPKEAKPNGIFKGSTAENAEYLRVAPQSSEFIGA

| Structure (SMILES) | pIC50 [1] | pIC50 [2] | pIC50 (Raf-1 (c-Raf)) | pIC50 [3] |
| --- | --- | --- | --- | --- |
| N#Cc1cnc2c(c1Nc1ccc(Oc3ccccc3)cc1)C=C1N=CN=C1C2 [Example 44, 8-(4-Phenoxyanilino)imidazo[4,5-g]quinoline-7-carbonitrile] | 6.07 | 5.04 | 8.05 | – |
| COc1cc(Nc2c(C#N)cnc3cc4cc(OCCN5CCOCC5)c(OC)cc4cc23)c(C)cc1Cl [Example 124, 4-(4-chloro-5-methoxy-2-methylanilino)-7-methoxy-8-[2-(4-morpholinyl)ethoxy]benzo[g]quinoline-3-carbonitrile] | – | – | 6.89 | 5.52 |
| COc1cc2cc3c(Nc4ccc(F)c(Cl)c4)c(C#N)cnc3cc2cc1OCCN1CCOCC1 [Example 205, 4-(3-Chloro-4-fluoroanilino)-7-methoxy-8-[2-(4-morpholinyl)ethoxy]benzo[g]quinoline-3-carbonitrile] | – | – | – | 6.60 |
| COc1cc(Nc2c(C#N)cnc3cc4cc(OCCN5CCOCC5)c(OC)cc4cc23)c(Cl)cc1C [Example 216, 4-(2-Chloro-5-methoxy-4-methylphenylamino)-7-methoxy-8-(2-morpholin-4-yl-ethoxy)benzo[g]quinoline-3-carbonitrile] | – | – | – | 6.54 |
| COc1cc2cc3ncc(C#N)c(Nc4ccc(OCc5ccccc5)c(Cl)c4)c3cc2cc1OCCN1CCOCC1 [Example 217, 4-(4-Benzyloxy-3-chlorophenylamino)-8-methoxy-7-(2-morpholin-4-yl-ethoxy)benzo[g]quinoline-3-carbonitrile] | 6.32 | 5.32 | < 5.00 | – |

Second part, led by results:

| pIC50 [1] | pIC50 [2] | pIC50 (Raf-1 (c-Raf)) | Structure (SMILES) | pIC50 [3] |
| --- | --- | --- | --- | --- |
| 6.36 | 5.40 | < 5.00 | COc1cc2cc3c(Nc4ccc(Sc5nccn5C)c(Cl)c4)c(C#N)cnc3nc2cc1OCCCl [Example 174, 8-(2-Chloroethoxy)-4-{3-chloro-4-[(1-methyl-1H-imidazol-2-yl)sulfanyl]anilino}-7-methoxybenzo[b][1,8]naphthyridine-3-carbonitrile] | – |
| 5.46 | 5.00 | 5.52 | COc1cc2cc3c(Nc4ccc(Sc5nccn5C)c(Cl)c4)c(C#N)cnc3nc2cc1OCCN1CCOCC1 [Example 176, 4-{3-Chloro-4-[(1-methyl-1H-imidazol-2-yl)sulfanyl]anilino}-7-methoxy-8-[2-(4-morpholinyl)ethoxy]benzo[b][1,8]naphthyridine-3-carbonitrile] | – |
| 6.52 | 5.85 | 7.57 | COc1cc2cc3c(Nc4ccc(Oc5ccccc5)c(Cl)c4)c(C#N)cnc3cc2cc1OCCN1CCOCC1 [Example 213, 4-(3-Chloro-4-phenoxyphenylamino)-7-methoxy-8-(2-morpholin-4-yl-ethoxy)benzo[g]quinoline-3-carbonitrile] | – |
| 6.60 | 5.10 | 6.51 | COc1cc2cc3ncc(C#N)c(Nc4ccc(Oc5ccccc5)c(Cl)c4)c3cc2cc1OCCN1CCOCC1 [Example 214, 4-(3-Chloro-4-phenoxyphenylamino)-8-methoxy-7-(2-morpholin-4-yl-ethoxy)benzo[g]quinoline-3-carbonitrile] | – |

Reference: patent publication EP1242382B1, “TRICYCLIC PROTEIN KINASE INHIBITORS” (Wyeth, priority 1999, dated 2001)
